Test results taken from the NIST ThermoML archive (doi:10.1016/j.jct.2016.02.026).
± gives the expanded uncertainty stated by the source. Blank lines part the entries; values can stand above or below the molecule they belong to.

What was measured:
[1] = Liquid; for mass density: 303.15 K, 91.2 kPa, Vibrating tube method; for vapor or sublimation pressure: Ebulliometric method (Recirculating still)
[2] = wn = mass fraction of the nth substance listed; details: 303.15 K, 91.2 kPa, Liquid, Vibrating tube method

SMILES: OCC(O)CO [glycerol]
mass density [1]: 1255 ± 3 kg/m3

SMILES: [Cl-].[K+] [potassium chloride] + O
mass density ([2]; w1 = 0.0344): 1017 ± 2 kg/m3
mass density ([2]; w1 = 0.053): 1029 ± 2 kg/m3
mass density ([2]; w1 = 0.067): 1038 ± 2 kg/m3
mass density ([2]; w1 = 0.0975): 1058 ± 2 kg/m3
mass density ([2]; w1 = 0.1259): 1077 ± 2 kg/m3
mass density ([2]; w1 = 0.1526): 1095 ± 2 kg/m3
mass density ([2]; w1 = 0.1779): 1113 ± 2 kg/m3
mass density ([2]; w1 = 0.2009): 1129 ± 2 kg/m3
mass density ([2]; w1 = 0.2117): 1137 ± 3 kg/m3
mass density ([2]; w1 = 0.2156): 1140 ± 2 kg/m3
mass density ([2]; w1 = 0.2448): 1161 ± 3 kg/m3
mass density ([2]; w1 = 0.2645): 1176 ± 3 kg/m3

SMILES: [Cl-].[Na+] [sodium chloride] + CCO
mass density ([2]; w1 = 0.00041): 788 ± 2 kg/m3

SMILES: [Cl-].[Na+] [sodium chloride] + O
mass density ([2]; w1 = 0.0318): 1018 ± 2 kg/m3
mass density ([2]; w1 = 0.0654): 1042 ± 2 kg/m3
mass density ([2]; w1 = 0.067): 1043 ± 2 kg/m3
mass density ([2]; w1 = 0.0949): 1063 ± 2 kg/m3
mass density ([2]; w1 = 0.0974): 1065 ± 2 kg/m3
mass density ([2]; w1 = 0.1232): 1084 ± 2 kg/m3
mass density ([2]; w1 = 0.1259): 1086 ± 2 kg/m3
mass density ([2]; w1 = 0.1578): 1110 ± 2 kg/m3
mass density ([2]; w1 = 0.1772): 1125 ± 2 kg/m3
mass density ([2]; w1 = 0.2013): 1144 ± 3 kg/m3
mass density ([2]; w1 = 0.225): 1163 ± 3 kg/m3
mass density ([2]; w1 = 0.244): 1178 ± 3 kg/m3
mass density ([2]; w1 = 0.2672): 1195 ± 3 kg/m3

SMILES: O [water]
mass density [1]: 996 ± 2 kg/m3
vapor or sublimation pressure ([1]; 327.65 K): 15.32 ± 0.9 kPa
vapor or sublimation pressure ([1]; 337.15 K): 23.61 ± 0.97 kPa
vapor or sublimation pressure ([1]; 341.35 K): 28.46 ± 1.4 kPa
vapor or sublimation pressure ([1]; 344.45 K): 33.81 ± 1.5 kPa
vapor or sublimation pressure ([1]; 348.05 K): 38.36 ± 1.5 kPa
vapor or sublimation pressure ([1]; 351.55 K): 44.42 ± 1.9 kPa
vapor or sublimation pressure ([1]; 355.75 K): 52.9 ± 1.9 kPa
vapor or sublimation pressure ([1]; 358.05 K): 56.84 ± 2.4 kPa
vapor or sublimation pressure ([1]; 361.85 K): 67.25 ± 2.7 kPa
vapor or sublimation pressure ([1]; 365.65 K): 77.55 ± 3 kPa
vapor or sublimation pressure ([1]; 370.05 K): 91.59 ± 3.2 kPa

SMILES: O [water] + OCC(O)CO
mass density ([2]; w2 = 0): 996 ± 2 kg/m3

SMILES: O [water] + [Cl-].[K+]
mass density ([2]; w2 = 0): 996 ± 2 kg/m3

SMILES: O [water] + [Cl-].[Na+]
mass density ([2]; w2 = 0): 996 ± 2 kg/m3

The remaining lines, values ahead:

mass density [1]: 781 ± 2 kg/m3
SMILES: CCO [ethanol]

mass density ([2]; w2 = 0): 781 ± 2 kg/m3
SMILES: CCO [ethanol] + OCC(O)CO

mass density ([2]; w2 = 0): 781 ± 2 kg/m3
SMILES: CCO [ethanol] + [Cl-].[Na+]

mass density ([2]; w1 = 0.1529): 835 ± 2 kg/m3
mass density ([2]; w1 = 0.2901): 888 ± 2 kg/m3
mass density ([2]; w1 = 0.4124): 939 ± 2 kg/m3
mass density ([2]; w1 = 0.5159): 985 ± 2 kg/m3
mass density ([2]; w1 = 0.6211): 1036 ± 2 kg/m3
mass density ([2]; w1 = 0.7096): 1084 ± 2 kg/m3
mass density ([2]; w1 = 0.7971): 1136 ± 2 kg/m3
mass density ([2]; w1 = 0.869): 1174 ± 3 kg/m3
mass density ([2]; w1 = 0.9357): 1215 ± 3 kg/m3
mass density ([2]; w1 = 1): 1255 ± 3 kg/m3
SMILES: OCC(O)CO [glycerol] + CCO

mass density ([2]; w1 = 0.1159): 1022 ± 2 kg/m3
mass density ([2]; w1 = 0.2056): 1044 ± 2 kg/m3
mass density ([2]; w1 = 0.3521): 1080 ± 2 kg/m3
mass density ([2]; w1 = 0.4646): 1108 ± 2 kg/m3
mass density ([2]; w1 = 0.5524): 1133 ± 2 kg/m3
mass density ([2]; w1 = 1): 1255 ± 3 kg/m3
SMILES: OCC(O)CO [glycerol] + O
